# Data published in patent publication US20050107430A1, “Antimicrobial and antiviral compounds” (priority 2003, published 2005).
# “And” between values parts separate entries of the source, which are not always exact repeats. Equal entries are not always repeated. Marks after values point to notes of the source that are not given here.
# Assays:
# E. coli ATCC 25922 = assay: NCCLS MIC/MBC microdilution, E. coli; assay type: cell-based; details: plate EC
# Description: (§1) [BBL Mueller Hinton Broth].
# Enterococcus faecium = assay: NCCLS MIC/MBC microdilution, Enterococcus (vancomycin sensitive); assay type: cell-based; details: for MBC: read at 48 hr
# Description: as §1
# S. aureus = assay: NCCLS MIC/MBC microdilution, S. aureus patient isolates; assay type: cell-based, Staphylococcus aureus; details: for MBC: read at 48 hr
# Description: as §1
# human fibroblasts = assay: Toxicity study with human fibroblasts; assay type: cell-based
# BDF1′ mice = details: 30 mg/kg ip
# [1] = tested on: VRE (Vancomycin resistant Enterococci); assay: NCCLS MIC/MBC microdilution, VRE; details: for MIC, VRE enterococcus (E. faecalis): 24 h and 48 h same results; for MIC: plate D4, VRE patient isolate
# Description: (§2) Standard NCCLS (e.g., National Committee for Clinical Laboratory Standards) methods for determining MIC (e.g., minimum inhibitory concentration) and MBC (e.g., minimum bactericidal concentration) were used. 96 well micro-well plates were placed in a humid chamber and frozen at −70° C. [BBL Mueller Hinton Broth]. Drugs (e.g., antimicrobial compounds of the present invention) were added to a series of wells through 2 fold serial dilutions. 100 μl of a 2×10^−3 M solution of the respective Tx compounds was added to the first well in a series. 100 μl of the inoculum (e.g., microorganism) was added to the well. […] For example, the concentration in well 8 would be less than the concentration of the same drug in well 7. Inoculum (e.g., microorganism) that was added to the wells was prepared from 24 hour growth of an isolate on 5% sheep blood/Columbia agar plates. 5 to 10 representative colonies were then picked from the plates and added to saline and adjusted to 0.5 McFarland turbidity. Next the sample was diluted 1:100 in saline, such that 100 μl of the diluted sample contained approximately 1×10^5 microbes. 100 μl of the diluted sample was added to each well in a series of drug concentrations. Once the cells were added to the wells, the well plates were incubated at 35° C. without CO2 for 48 hrs and at this time the minimum bactericidal concentration was determined.
# (§3) The MIC of Tx-118, Tx-147, and Tx-197 for certain Staphylococcus aureus (MRSA), Pseudomonas aeruginosa, Stenotrophomonas maltophilia, and VRE Enterococcus faecalis was determined using standard NCCLS methods. The first well in each series of decreasing drug concentrations contained 1×10^−4 M of a drug. The drug was diluted by serial two fold dilutions through all 12 wells in a series. There was a final DMSO concentration of 2% in the first well and 1% in the second well, etc. Tests with Tx-118 and Tx-197 were performed in triplicate, and tests with Tx-147 were performed in duplicate.
# [2] = tested on: MRSA (oxacillin/methicillin resistant S. aureus); assay: NCCLS MIC/MBC microdilution, MRSA; details: for MIC, MRSA (methicillin resistant): Table 3, 24 h and 48 h same results
# Description: as §2, §3
# P. aeruginosa = assay: NCCLS MIC/MBC microdilution, P. aeruginosa; set-up: MIC: key to the marks not given beside the values; details: for MIC, P. aeruginosa: Table 3, P. aeroginosa is L13 from Table 2
# [3] = tested on: Stenotrophomonas maltophilia; assay: NCCLS MIC/MBC microdilution, S. maltophilia; details: for MIC, Stenotrophomonas maltophilia: 24 h and 48 h same results
# Description: as §2, §3
# [4] = tested on: Vancomycin resistant S. aureus ATCC700699 and 700788 (VRSA); assay: NCCLS MIC/MBC microdilution, vancomycin resistant S. aureus; assay type: cell-based, Staphylococcus aureus; details: for MBC: read at 48 hr
# Description: as §1
# Mycobacterium fortutium = assay: MIC, Mycobacterium fortutium; assay type: cell-based
# M. avium intracellularie = assay: MIC, M. avium intracellularie; assay type: cell-based, Mycobacterium avium intracellulare; details: Table 3
# [5] = tested on: Mycobacterium tuberculosis; details: Table 3
# [6] = plate E348, Enterococcus faecium patient isolate
# [7] = plate E502, Enterococcus faecium ATCC 502806
# [8] = plate E523, Enterococcus facium patient isolate
# [9] = plate S332, S aureus patient isolate
# [10] = plate S520, S aureus patient isolate penicillin resistant
# [11] = plate K12, MRSA patient isolate
# [12] = plate 37, P. aeruginosa sensitive isolate
# [13] = plate ATCC, P. aeruginosa ATCC 27853
# [14] = plate L13, P. aeruginosaR (multi-resistant)
# [15] = plate C3, S. maltophilia patient isolate
# [16] = plate I10, S. maltophilia patient isolate
# [17] = plate J11, S. maltophilia patient isolate
# [18] = Table 3, 24 h and 48 h same results
# [19] = plate 699, VancoR S. aureus ATCC700699
# [20] = plate 788, VancoR S. aureus ATCC 700788
# [21] = Example 2, first well 1×10^−4 M
smiles,measurement,setting,value
"CN1CCN(C(=O)CCC(=O)Nc2cc3c(c4ccccc24)-c2ccc4ccccc4c2C3)CC1 [Tx-37, N-[11′-(13′H-Dibenzo[a,g]-fluorenyl)]-4-(4′N methyl-piperazinyl)-butane-1,4-dicarboxiamide]",MIC,E. coli ATCC 25922,+++
same,MIC,Enterococcus faecium; [6],+++
same,MIC,Enterococcus faecium; [7],+++
same,MIC,Enterococcus faecium; [8],+++
same,MIC,S. aureus; [9],+++
same,MIC,S. aureus; [10],+++
same,Toxicity/human fibroblasts (IC50),human fibroblasts,5 µg/mL
same,"animal studies (ip), mortality",BDF1′ mice,30 mg/kg (no mortality)
same,"MIC, VRE enterococcus (E. faecalis)",[1]; Table 3,58 µg/mL
same,MIC,[1],58 µg/mL
same,"MIC, MRSA (methicillin resistant)",[2],1.8 to 7 µg/mL
same,MIC,"[2]; plate A1, MRSA patient isolate",7.2 µg/mL
same,MIC,"[2]; plate B2, MRSA patient isolate",3.6 µg/mL
same,MIC,"[2]; plate E5, MRSA patient isolate",3.6 µg/mL
same,MIC,"[2]; plate F6, MRSA patient isolate",1.8 µg/mL
same,MIC,"[2]; plate G7, MRSA patient isolate",3.6 µg/mL
same,MIC,"[2]; plate H9, MRSA patient isolate",7.2 µg/mL
same,MIC,[2]; [11],7.2 µg/mL
same,"MIC, P. aeruginosa",P. aeruginosa,No activity
same,MIC,P. aeruginosa; [12],+++
same,MIC,P. aeruginosa; [13],+++
same,MIC,P. aeruginosa; [14],+++
same,"MIC, Stenotrophomonas maltophilia",[3]; Table 3,No activity
same,MIC,[3]; [15],+++
same,MIC,[3]; [16],+++
same,MIC,[3]; [17],+++
O=C(CCC(=O)N1CCCCC1)Nc1cc2c(c3ccccc13)-c1ccc3ccccc3c1C2 [Tx-38],MIC,E. coli ATCC 25922,+++
same,MIC,Enterococcus faecium; [6],+++
same,MIC,Enterococcus faecium; [7],+++
same,MIC,Enterococcus faecium; [8],+++
same,MIC,S. aureus; [9],+++
same,MIC,S. aureus; [10],+++
same,Toxicity/human fibroblasts (IC50),human fibroblasts,12 ug/ml human fibroblasts
same,"animal studies (ip), mortality",BDF1′ mice,30 mg/kg (no mort)
same,"MIC, VRE enterococcus (E. faecalis)",[1]; Table 3,No activity
same,MIC,[1],+++
same,"MIC, MRSA (methicillin resistant)",[2],No activity
same,MIC,"[2]; plate A1, MRSA patient isolate",+++^a
same,MIC,"[2]; plate B2, MRSA patient isolate",+++
same,MIC,"[2]; plate E5, MRSA patient isolate",+++
same,MIC,"[2]; plate F6, MRSA patient isolate",+++
same,MIC,"[2]; plate G7, MRSA patient isolate",+++
same,MIC,"[2]; plate H9, MRSA patient isolate",+++
same,MIC,[2]; [11],+++
same,"MIC, P. aeruginosa",P. aeruginosa,No activity
same,MIC,P. aeruginosa; [12],+++
same,MIC,P. aeruginosa; [13],+++
same,MIC,P. aeruginosa; [14],+++
same,"MIC, Stenotrophomonas maltophilia",[3]; Table 3,No activity
same,MIC,[3]; [15],+++
same,MIC,[3]; [16],+++
same,MIC,[3]; [17],+++
CN1CCN(CCCCNc2cc3c4ccccc4c(NCCCCN4CCN(C)CC4)cc3c3ccccc23)CC1.Cl [Tx-147],MIC,E. coli ATCC 25922,+++
same,MIC,Enterococcus faecium; [6],3 µg/mL
same,MBC,Enterococcus faecium; [6],6 µg/mL
same,MIC,Enterococcus faecium; [7],6 µg/mL
same,MBC,Enterococcus faecium; [7],12 µg/mL
same,MIC,Enterococcus faecium; [8],6 µg/mL
same,MBC,Enterococcus faecium; [8],12 µg/mL
same,MIC,S. aureus; [9],12/12 ug/ml
same,MBC,S. aureus; [9],12/12 ug/ml
same,MIC,S. aureus; [10],12/12 ug/ml
same,MBC,"S. aureus; plate S520, S aureus patient isolate",12/12 ug/ml
same,"MIC, VRSA (ATCC 700699)",[4]; [18],6 µg/mL
same,"MIC, VRSA (ATCC 700788)",[4]; [18],24 µg/mL
same,MIC,[4]; [19],6 µg/mL
same,MBC,[4]; [19],23 µg/mL
same,MIC,[4]; [20],24 µg/mL
same,MBC,[4]; [20],49 µg/mL
same,MIC for Mycobacterium fortutium,Mycobacterium fortutium; Example 2,0.0039 µg/mL
same,"MIC, Mycobacterium fortutium",Mycobacterium fortutium; Table 3,39 µg/mL
same,"MIC, M. avium intracellularie",M. avium intracellularie,12 to 24 µg/mL
same,"MIC, Mycobacterium tuberculosis",[5],3 µg/mL
same,"animal studies (ip), mortality",BDF1′ mice,30 mg/kg (10-12% mort)
same,MIC for VRE,[1]; [21],0.0019 µg/mL
same,"MIC, VRE enterococcus (E. faecalis)",[1]; Table 3,12 µg/mL
same,"MIC, VRE enterococcus (vancomycin, Penicillin & aminoglycoside rest.)","[1]; Table 3, vancomycin, Penicillin & aminoglycoside resistant",19 µg/mL
same,bactericidal activity for VRE,"[1]; in words, Example 1",some bactericidal activity
same,MIC,[1],12 µg/mL
same,MIC for Staphylococcus aureus (MRSA),"[2]; Example 2, first well 1×10^−4 M, two fold dilutions",0.0039 µg/mL
same,"concentration that was bactericidal, Staphylococcus aureus (MRSA)","[2]; Example 2, wells 1 and 2, hydrochloride",0.0078 µg/mL and 0.0039 µg/mL
same,"MIC, MRSA (methicillin resistant)",[2],24 to 49 µg/mL
same,bactericidal activity against Staphylococcus aureus (MRSA),"[2]; in words, Example 1",bactericidal activity
same,MIC,"[2]; plate A1, MRSA patient isolate",24 µg/mL
same,MIC,"[2]; plate B2, MRSA patient isolate",48 µg/mL
same,MIC,"[2]; plate E5, MRSA patient isolate",24 µg/mL
same,MIC,"[2]; plate F6, MRSA patient isolate",24 µg/mL
same,MIC,"[2]; plate G7, MRSA patient isolate",24 µg/mL
same,MIC,"[2]; plate H9, MRSA patient isolate",48 µg/mL
same,MIC,[2]; [11],48 µg/mL
same,"MIC, P. aeruginosa",P. aeruginosa,No activity
same,MIC,P. aeruginosa; [12],+++
same,MIC,P. aeruginosa; [13],+++
same,MIC,P. aeruginosa; [14],+++
same,MIC for Stenotrophomonas maltophilia,[3]; [21],0.0078 µg/mL
same,"MIC, Stenotrophomonas maltophilia",[3]; Table 3,98 to 785 µg/mL
same,"MIC, Stenotrophomonas maltophilia (resist. various drugs)","[3]; Table 3, strain resist. various drugs",78 µg/mL
same,MIC,[3]; [15],96 µg/mL
same,MIC,[3]; [16],784 µg/mL
same,MIC,[3]; [17],784 µg/mL
